The source of these data is the NIST ThermoML archive (doi:10.1016/j.jct.2009.06.022).

± gives the expanded uncertainty stated by the source.

Data set [1] can be described thus: molar enthalpy of vaporization or sublimation. To be noted: 298.15 K; Crystal; Static calorimetry.
Data set [2] in a line: Molar enthalpy of transition or fusion. The conditions noted are these: Crystal; DSC.
The conditions of data set [3]: Crystal; DTA.

For `O=C1CC(c2ccccc2)Oc2ccccc21` (stereo unspecified) [2,3-dihydroflavone], the molar enthalpy in data set [1] came to 107 ± 4.6 kJ/mol. Also, the “Molar enthalpy of transition or fusion” value in data set [2] is 21 ± 0.58 kJ/mol. Also, in data set [3], the Normal melting temperature is 76.34 ± 0.44 °C.
In the same order, the values of `O=c1cc(-c2ccccc2)oc2ccccc12` [flavone] are 108 ± 3.4 kJ/mol, 20.3 ± 0.51 kJ/mol and 96.74 ± 0.44 °C.
